Measured values taken from the supplement of paper PMC7661543.
± gives the standard deviation of the averaged measurements.

Tested on: MDA-MB-231
Experiment: relative cell number vs DMSO control (72 h) (% of DMSO); higher = less growth inhibition (more cells)
Conditions: sgRNA knockout: sgNT, 100 nM
Method: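 QMAP-Seq: a pool of 5 breast cancer cell lines (ZR-75-1, SKBR3, HCC-38, MDA-MB-231, BT-20), each carrying 12 doxycycline-inducible Cas9 sgRNA perturbations (11 knockouts plus non-targeting sgNT), was treated with compounds for 72 h at four 10-fold doses (10 nM-10 uM or 1 nM-1 uM range). Barcodes were amplified and sequenced, and cell number was interpolated from 293T spike-in standard curves. The result is expressed as % of the median of DMSO wells. Two biological replicates.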

Row | SMILES | relative cell number
1 | CN1CCc2c(c3ccccc3n2Cc2ccc(C(=O)NO)cc2)C1 [TubastatinA] | 95.1 ± 14
2 | CCOc1ccccc1-n1c(C(C)N2CCN(C(=O)COc3ccc(Cl)cc3)CC2)nc2ccccc2c1=O (stereo not given) [Erastin] | 103 ± 30
3 | CN1C(=O)C(Cc2c[nH]c3ccccc23)NC1=S (stereo not given) [Necrostatin1] | 79.2 ± 7.1
4 | O=C1NC(=O)[C@@H](c2cn3c4c(cccc24)CCC3)[C@@H]1c1c[nH]c2ccccc12 [Tivantinib] | 97.1 ± 6.3
5 | CCn1c(=O)c2c(nc(/C=C/c3ccc(OC)c(OC)c3)n2C)n(CC)c1=O [Istradefylline] | 146 ± 30
6 | COc1ccc(-c2ccc3c(N4CCOCC4)nc(N4C[C@@H](C)O[C@@H](C)C4)nc3n2)cc1CO | 166 ± 26
7 | C[C@]12CC[C@@H]3c4ccc(O)cc4C[C@@H](CCCCCCCCC[S+]([O-])CCCC(F)(F)C(F)(F)F)[C@H]3[C@@H]1CC[C@@H]2O (stereo not given in full) [Fulvestrant] | 93.5 ± 22
8 | COC(=O)Nc1nc2cc(C(=O)c3ccccc3)ccc2[nH]1 [Mebendazole] | 79.4 ± 38
9 | O=C(NOCC(O)CO)c1cc(Br)c(F)c(F)c1Nc1ccc(I)cc1F (stereo not given) | 75.8 ± 19
10 | OCc1ccc(-c2ccc(-c3ccc(CO)s3)o2)s1 | 118 ± 5.9
11 | CC(=O)Nc1cccc(-n2c(=O)n(C3CC3)c(=O)c3c(Nc4ccc(I)cc4F)n(C)c(=O)c(C)c32)c1 [Trametinib] | 66.9 ± 6
12 | C=CCn1c(=O)c2cnc(Nc3ccc(N4CCN(C)CC4)cc3)nc2n1-c1cccc(C(C)(C)O)n1 [MK1775] | 74 ± 8
13 | S=c1nc[nH]c2nc[nH]c12 [6-Mercaptopurine] | 79.8 ± 1.3

Same assay, conditions: sgRNA knockout: sgNT, 1000 nM

Row | SMILES | relative cell number
14 | Cc1cnc(Nc2ccc(OCCN3CCCC3)cc2)nc1Nc1cccc(S(=O)(=O)NC(C)(C)C)c1 | 64.9 ± 6.9
15 | CN(C)CC[C@H](CSc1ccccc1)Nc1ccc(S(=O)(=O)NC(=O)c2ccc(N3CCN(Cc4ccccc4-c4ccc(Cl)cc4)CC3)cc2)cc1[N+](=O)[O-] [ABT737] | 90.4 ± 30
16 | O=P1(N(CCCl)CCCl)NCCCO1 (stereo not given) [Cyclophosphamide] | 74 ± 11
17 | CCOC(=O)[C@@]1(CCCCCCOc2ccc(Cl)cc2)CO1 [Etomoxir] | 114 ± 30
18 | Cc1ccc(Nc2nccc(N(C)c3ccc4c(C)n(C)nc4c3)n2)cc1S(N)(=O)=O [Pazopanib] | 88.68 ± 0.85
19 | CC(C)C[C@H](NC(=O)[C@H](CCc1ccccc1)NC(=O)CN1CCOCC1)C(=O)N[C@@H](Cc1ccccc1)C(=O)N[C@@H](CC(C)C)C(=O)[C@@]1(C)CO1 [Carfilzomib] | 18.7 ± 5.8
20 | N.N.[Cl][Pt][Cl] [Cisplatin] | 99.8 ± 51
21 | Cc1cc2c(C(C)C)c(O)c(O)c(C=O)c2c(O)c1-c1c(C)cc2c(C(C)C)c(O)c(O)c(C=O)c2c1O [Gossypol] | 103 ± 33
22 | COc1cccc2c1C(=O)c1c(O)c3c(c(O)c1C2=O)C[C@@](O)(C(=O)CO)C[C@@H]3O[C@H]1C[C@H](N)[C@H](O)[C@H](C)O1 [Doxorubicin] | 20.3 ± 0.47
23 | CCC(C)SSc1ncc[nH]1 (stereo not given) [PX12] | 99.5 ± 25
24 | CC(=O)Nc1nc(C)c(S(=O)(=O)Nc2ccc(C(O)(C(F)(F)F)C(F)(F)F)cc2)s1 [SR1001] | 106 ± 12
25 | CN1CCc2c(c3ccccc3n2Cc2ccc(C(=O)NO)cc2)C1 [TubastatinA] | 138 ± 27
26 | CCOc1ccccc1-n1c(C(C)N2CCN(C(=O)COc3ccc(Cl)cc3)CC2)nc2ccccc2c1=O (stereo not given) [Erastin] | 87.6 ± 4.9
27 | CN1C(=O)C(Cc2c[nH]c3ccccc23)NC1=S (stereo not given) [Necrostatin1] | 97.7 ± 25
28 | O=C1NC(=O)[C@@H](c2cn3c4c(cccc24)CCC3)[C@@H]1c1c[nH]c2ccccc12 [Tivantinib] | 34.2 ± 18
29 | CCn1c(=O)c2c(nc(/C=C/c3ccc(OC)c(OC)c3)n2C)n(CC)c1=O [Istradefylline] | 93.8 ± 5.8
30 | COc1ccc(-c2ccc3c(N4CCOCC4)nc(N4C[C@@H](C)O[C@@H](C)C4)nc3n2)cc1CO | 113 ± 5.1
31 | C[C@]12CC[C@@H]3c4ccc(O)cc4C[C@@H](CCCCCCCCC[S+]([O-])CCCC(F)(F)C(F)(F)F)[C@H]3[C@@H]1CC[C@@H]2O (stereo not given in full) [Fulvestrant] | 89.8 ± 4
32 | COC(=O)Nc1nc2cc(C(=O)c3ccccc3)ccc2[nH]1 [Mebendazole] | 31.4 ± 12
33 | O=C(NOCC(O)CO)c1cc(Br)c(F)c(F)c1Nc1ccc(I)cc1F (stereo not given) | 56.5 ± 25
34 | OCc1ccc(-c2ccc(-c3ccc(CO)s3)o2)s1 | 102 ± 7.9
35 | CC(=O)Nc1cccc(-n2c(=O)n(C3CC3)c(=O)c3c(Nc4ccc(I)cc4F)n(C)c(=O)c(C)c32)c1 [Trametinib] | 39.9 ± 6
36 | C=CCn1c(=O)c2cnc(Nc3ccc(N4CCN(C)CC4)cc3)nc2n1-c1cccc(C(C)(C)O)n1 [MK1775] | 20.3 ± 8
37 | S=c1nc[nH]c2nc[nH]c12 [6-Mercaptopurine] | 60.6 ± 15

Same assay, conditions: sgRNA knockout: sgNT, 10000 nM

Row | SMILES | relative cell number
38 | Cc1cnc(Nc2ccc(OCCN3CCCC3)cc2)nc1Nc1cccc(S(=O)(=O)NC(C)(C)C)c1 | 5.85 ± 0.9
39 | CN(C)CC[C@H](CSc1ccccc1)Nc1ccc(S(=O)(=O)NC(=O)c2ccc(N3CCN(Cc4ccccc4-c4ccc(Cl)cc4)CC3)cc2)cc1[N+](=O)[O-] [ABT737] | 69.4 ± 16
40 | O=P1(N(CCCl)CCCl)NCCCO1 (stereo not given) [Cyclophosphamide] | 136 ± 10
41 | CCOC(=O)[C@@]1(CCCCCCOc2ccc(Cl)cc2)CO1 [Etomoxir] | 92.8 ± 19
42 | Cc1ccc(Nc2nccc(N(C)c3ccc4c(C)n(C)nc4c3)n2)cc1S(N)(=O)=O [Pazopanib] | 66.1 ± 19
43 | N.N.[Cl][Pt][Cl] [Cisplatin] | 116 ± 20
44 | Cc1cc2c(C(C)C)c(O)c(O)c(C=O)c2c(O)c1-c1c(C)cc2c(C(C)C)c(O)c(O)c(C=O)c2c1O [Gossypol] | 22.7 ± 7.3
45 | COc1cccc2c1C(=O)c1c(O)c3c(c(O)c1C2=O)C[C@@](O)(C(=O)CO)C[C@@H]3O[C@H]1C[C@H](N)[C@H](O)[C@H](C)O1 [Doxorubicin] | 7.68 ± 2.6
46 | CCC(C)SSc1ncc[nH]1 (stereo not given) [PX12] | 54.6 ± 0.63
47 | CC(=O)Nc1nc(C)c(S(=O)(=O)Nc2ccc(C(O)(C(F)(F)F)C(F)(F)F)cc2)s1 [SR1001] | 118 ± 29
48 | CN1CCc2c(c3ccccc3n2Cc2ccc(C(=O)NO)cc2)C1 [TubastatinA] | 50.6 ± 17
49 | CCOc1ccccc1-n1c(C(C)N2CCN(C(=O)COc3ccc(Cl)cc3)CC2)nc2ccccc2c1=O (stereo not given) [Erastin] | 25.1 ± 4.8
50 | CN1C(=O)C(Cc2c[nH]c3ccccc23)NC1=S (stereo not given) [Necrostatin1] | 64.1 ± 3
51 | O=C1NC(=O)[C@@H](c2cn3c4c(cccc24)CCC3)[C@@H]1c1c[nH]c2ccccc12 [Tivantinib] | 22.9 ± 13
52 | CCn1c(=O)c2c(nc(/C=C/c3ccc(OC)c(OC)c3)n2C)n(CC)c1=O [Istradefylline] | 105 ± 43
53 | COc1ccc(-c2ccc3c(N4CCOCC4)nc(N4C[C@@H](C)O[C@@H](C)C4)nc3n2)cc1CO | 57.7 ± 19
54 | C[C@]12CC[C@@H]3c4ccc(O)cc4C[C@@H](CCCCCCCCC[S+]([O-])CCCC(F)(F)C(F)(F)F)[C@H]3[C@@H]1CC[C@@H]2O (stereo not given in full) [Fulvestrant] | 92 ± 12
55 | COC(=O)Nc1nc2cc(C(=O)c3ccccc3)ccc2[nH]1 [Mebendazole] | 26.5 ± 1.1
56 | O=C(NOCC(O)CO)c1cc(Br)c(F)c(F)c1Nc1ccc(I)cc1F (stereo not given) | 47.5 ± 17
57 | OCc1ccc(-c2ccc(-c3ccc(CO)s3)o2)s1 | 40 ± 2.9
58 | CC(=O)Nc1cccc(-n2c(=O)n(C3CC3)c(=O)c3c(Nc4ccc(I)cc4F)n(C)c(=O)c(C)c32)c1 [Trametinib] | 20.1 ± 2.6
59 | C=CCn1c(=O)c2cnc(Nc3ccc(N4CCN(C)CC4)cc3)nc2n1-c1cccc(C(C)(C)O)n1 [MK1775] | 13.8 ± 6.6
60 | S=c1nc[nH]c2nc[nH]c12 [6-Mercaptopurine] | 63.5 ± 7.8
